Results from US11117888B2, “Irreversible inhibitors of pyruvate kinase M2 and the use thereof” (China Medical University, priority 2020, dated 2021).

What was measured:
Assay type in all cases: cell-based, human
lung cancer cell lines = assay: MTT cell viability assay, panel of lung cancer cell lines
Source text: Cell lines, cell culture, biochemical reagents, and antibodies. MiaPaCa-2, AsPC-1, and Panc-1 human pancreatic cancer cells, MCF-7 and MDA-MB-231 breast cancer cells, SCC4 and SCC2059 oral cancer cells, PC-3 and LNCaP prostate cancer cells, H157, H460, H1975, PC-9 and H1650 lung cancer cells were obtained from the American Type Culture Collection (ATCC, Manassas, Va.). All these cells were maintained in recommended growth medium (RPMI 1640 or DMEM) supplemented with 10% fetal bovine serum (FBS) (Invitrogen, Carlsbad, Calif., USA) and antibiotics at 37° C. in a humidified incubator containing 5% CO2. For SILAC experiments, PC-9 cells were grown in SILAC DMEM medium (Thermo Fisher) supplemented with 10% dialyzed FBS and 100 μg/mL each of unlabeled L-arginine and L-lysine (light medium) or ^13C/^15N stable isotope-labeled L-arginine and L-lysine (heavy medium). […]
Cell viability assays. Drug effects on cell viability was assessed by 3-(4,5-dimethylthiazol-2-yl)-2,5-diphenyltetrazolium bromide ([…]) assays. […] The medium was then removed from each well and replaced with DMSO to dissolve the reduced MTT dye for subsequent colorimetric measurement of absorbance at 560 nm. Cell viabilities are expressed as percentages of viable cells relative to the corresponding vehicle-treated control group.

PC-9 cells = assay: ABPP-SILAC proteomic target identification; conditions: 1 μM, 1 hour, LC-MS/MS
Protocol: As part of our effort to identify compound 1's target(s), we embarked on the use of compound 2 as an ABPP probe to conduct SILAC-based proteomic analysis. […] In this experiment, PC-9 cells were grown in cultural medium supplemented with unlabeled L-arginine and L-lysine (light medium) versus ^13C/^15N stable isotope-labeled L-arginine and L-lysine (heavy medium), generating two populations of cells (light versus heavy cells). Heavy PC-9 cells were then exposed to the ABPP (1 μM) for 1 hour to allow intracellular labelling of target proteins, while light cells were treated with DMSO vehicle under the same condition. […] These peptide mixtures were analyzed by liquid chromatography-tandem mass spectrometry (LC-MS/MS), and the resulting data were searched against various primary sequence databases by using the Mascot search engine. […]
SILAC analysis and click chemistry. […] The supernatant was transferred to a 1.5 mL microfuge tube, and the protein concentration was determined by the BCA protein assay (Thermo Fisher Scientific) and then normalized to 1 mg/mL. […]
Proteomic data analysis. Putative target proteins of compound 1 and protein-protein interaction network were identified and analyzed, respectively, through a web-based search of the STRING database (https://string-db.org/). […]

[1] = test system: pyruvate kinase activity in PC-9 cells; assay: Pyruvate kinase activity assay in PC-9 cells; conditions: 0.25 μM, 6 hours, relative to vehicle control
Protocol: Pyruvate kinase activity assays. PC-9 cells were seeded into 6 cm dishes at a concentration of 5×10^5 cells/mL. After 24 hours, cells were treated with 0.25 μM compound 1 or DMSO for 6 hours. The pyruvate kinase activity of compound 1-treated PC-9 and vehicle control cells was measured by using a commercial colorimetric assay kit from BioVision (Milpitas, Calif., USA) according to the manufacturer's protocol. In addition, to verify the specificity of compound 1 toward PKM2 versus PKM1, the inhibition of the kinase activity of recombinant PKM1 (SRP0415, Sigma-Aldrich) and recombinant PKM2 (SAE0021, Sigma-Aldrich) by compound 1 was conducted using the aforementioned assay kit.

[2] = test system: PKM2, EGFR, Stat3, β-catenin in PC-9 cells; assay: Immunoblot analysis of oncogenic effectors in PC-9 cells; conditions: Western blot, 24 hours
Protocol: Immunoblot analysis. PC-9 cells were seeded into 6 cm dish at a concentration of 5×10^5 cells/mL. After 24 hours, cells were treated with 0-1 μM compound 1 or DMSO alone for 24 hours. The cells were harvested at 24 hours, and protein extractions were carried out. The protein lysate was subjected to 10% SDS-PAGE and transferred to a nitrocellulose membrane (GE Healthcare Life Sciences). Protein expression was analyzed by Western blotting using primary antibodies against PKM2, EGFR, p-STAT3, STAT3, p-β-catenin (Cell Signaling Technology), β-catenin (Santa Cruz Biotechnology) and β-actin (Sigma-Aldrich), followed by incubation with horseradish peroxidase-conjugated secondary (Jackson ImmunoResearch Laboratories). Specific proteins were detected by chemiluminescence using ECL Plus Western Blotting Detection Reagents (GE Healthcare Biosciences).

Structure (SMILES)	antiproliferative effect in lung cancer cell lines (lung cancer cell lines)	protein targets labelled by ABPP probe (PC-9 cells)	pyruvate kinase activity in cells [1]	expression and/or phosphorylation of PKM2, EGFR, Stat3, β-catenin [2]
C#CCOc1ccc(-c2ccc(-c3cc(CCC(=O)NC)nn3-c3ccc(NC(=O)C#C)cc3)cc2)cc1 [compound 2, N-(4-(3-(3-(Methylamino)-3-oxopropyl)-5-(4′-(prop-2-yn-1-yloxy)-[1,1′-biphenyl]-4-yl)-1H-pyrazol-1-yl)phenyl)propiolamide]	pattern of growth inhibition similar to that of compound 1	the protein with the highest matching score was the 58 kDa PKM2		
C#CC(=O)Nc1ccc(-n2nc(CCc3nnc(C)o3)cc2-c2ccc(-c3ccc(C(F)(F)F)cc3)cc2)cc1 [compound 3]	high antiproliferative potencies		equipotent in suppressing PKM2 kinase activity relative to compound 1	high efficacy in suppressing the phosphorylation/expression of various oncogenic biomarkers
